Results as given in patent publication US20250312497A1, “METHOD OF TREATING PROSTATE CANCER” (Novartis AG, priority 2022, published 2025).
Several values for one entry are separate records, joined by “and”; a condition that tells them apart may be missing. Equal entries are not always repeated. Where two headings read alike, the source gives them in different places.

Key:
[1] = tested on: docetaxel progressing metastatic castration-resistant prostate cancer; details: randomized, 200 patients; P<0.0001; cited from earlier work
[2] = tested on: PSMA-positive metastatic castration-resistant prostate cancer (mCRPC); test: PSMAfore phase III: overall survival (OS), interim analysis; format: in vivo, human; details: first interim analysis DCO 2 Oct 2022
Procedure: After radiographic progression, follow up for survival will continue.
OS is hierarchically tested based on a three-look group sequential design using a Lan DeMets (O'Brien Flemming) alpha spending function. The final OS analysis was not planned to be performed at the time of the interim rPFS analysis, which is reported in this FIR.
Following the hierarchical testing strategy defined in the study protocol, OS was tested once rPFS was statistically significant. The one-sided alpha level (<0.000000001012) required for a significant OS difference in this first interim analysis was calculated from the pre-specified alpha spending function and the number of events observed at the time of rPFS analysis.
Results in terms of the OS at the time of the first interim OS analysis are based on 13.5% (40/297 deaths).
The second interim analysis for OS is planned after additional follow up when approximately 75% (223/297) of the targeted number of deaths/events have occurred. If OS is not statistically significant at the second interim analysis, a final analysis is planned when approximately 297 deaths have been recorded.

[3] = tested on: PSMA-positive metastatic castration-resistant prostate cancer; details: cited from earlier work
mCRPC participants = details: cited from earlier work
[4] = tested on: PSMA-positive metastatic castration-resistant prostate cancer (mCRPC); test: PSMAfore phase III: radiographic progression-free survival (rPFS) by blinded independent central review per PCWG3; format: in vivo, human
Procedure: Radiographic progression-free survival (rPFS) based on independent central review as per PCWG3 criteria is the primary endpoint and overall survival (OS) is the key secondary endpoint for the study. The statistical design of the study is such that, to be declared positive, the study would be required to reach statistical significance on the primary analysis of rPFS.
The primary analysis of rPFS and the first interim analysis of OS were performed using all patients randomized on or before the data cutoff date of 2 Oct. 2022 using a one-sided alpha level of 2.5%. One randomized and treated patient was excluded from Full Analysis Set due to informed consent not obtained per due process (INCL1A PD).

[5] = tested on: PSMA-positive metastatic castration-resistant prostate cancer; details: cited from earlier work; remark: listed apart in the source
[6] = tested on: castrate-resistant metastatic prostate cancer; details: cited from earlier work
[7] = tested on: PSMA-positive metastatic castration-resistant prostate cancer (mCRPC); test: PSMAfore phase III: radiographic progression-free survival (rPFS) by blinded independent central review per PCWG3; format: in vivo, human; remark: listed apart in the source
[8] = excretory mechanisms, kidneys (Kratochwil et al 2016); cited from earlier work
[9] = tested on: PSMA-positive metastatic castration-resistant prostate cancer (mCRPC); test: PSMAfore phase III: best overall radiological response (soft tissue and bone) by BICR; format: in vivo, human; details: results update
Procedure: Best overall radiological response accounting for soft tissue and bone disease based on BICR (Recist analysis set—participants with measurable disease at baseline)
Responses are based on soft tissue assessment and bone lesion progression. Best overall responses of CR and PR were confirmed by repeat assessments that were performed not less than 4 weeks after the criteria for response were first met.
CR may include participants with residual but non-progressive bone disease.

[10] = DCO 2 Oct 2022, full analysis set
[11] = primary analysis DCO 2 Oct 2022, most recent central vendor data (results update)
[12] = DCO 21 Jun 2023, full analysis set
[13] = Recist analysis set, measurable disease at baseline, BICR

Compound: O=C([O-])CN1CCN(CC(=O)[O-])CCN(CC(=O)NCC2CCC(C(=O)N[C@@H](Cc3ccc4ccccc4c3)C(=O)NCCCC[C@H](NC(=O)N[C@@H](CCC(=O)O)C(=O)O)C(=O)O)CC2)CCN(CC(=O)[O-])CC1.[177Lu+3] (stereo partly drawn) [[177Lu]Lu-PSMA-617, lutetium (177Lu) vipivotide tetraxetan]
- proportion of patients with PSA decline >=50% [1]: 66%
- median OS (95% CI) ([2]; Kaplan-Meier): NE [12.16, NE]
- OS: Number of events ([2]; full analysis set): 20 (8.6) n(%)
- complete response ([3]; RECIST 1.1 measurable target lesions, 17 of 184 patients): 9.2%
- partial response ([3]; RECIST 1.1 measurable target lesions, 77 patients): 41.8%
- median imaging-based progression-free survival ([3]; plus standard care, vs 3.4 months standard care): 8.7 months
- median overall survival ([3]; plus standard care, vs 11.3 months standard care): 15.3 months
- hazard ratio for death ([3]; vs standard care, 95% CI 0.52 to 0.74): 0.62
- hazard ratio for progression or death ([3]; vs standard care, 99.2% CI 0.29 to 0.57): 0.40
- Grade 3/4 nephrotoxicity (mCRPC participants; literature): no reports of Grade 3/4 nephrotoxicity
- rate of xerostomia in treated participants (mCRPC participants; prospective study, low grade): approximately 87%
- rPFS events: Death without radiographic progression [4, 10]: 6 (2.6) n(%)
- rPFS events: Radiographic progression [4, 10]: 55 (23.6) n(%)
- rPFS: Number of events [4, 10]: 61 (26.2%) n(%) and 61 (26.2) n(%)
- risk reduction (rPFS) compared to ARDT arm [4, 10]: 58%
- rPFS 75th percentile (95% CI) ([4]; DCO 2 Oct 2022, full analysis set, Kaplan-Meier): NE [11.96, NE]
- estimated rPFS probability (95% CI) at 6 months [4, 11]: 69.0%
- rPFS: Number of events [4, 11]: 60 (25.8%) n (%)
- TEAE anemia ([5]; VISION): 31.8%
- TEAE arthralgia ([5]; VISION): 22.3%
- TEAE back pain ([5]; VISION): 23.4%
- TEAE constipation ([5]; VISION): 20.2%
- TEAE decreased appetite ([5]; VISION): 21.2%
- TEAE diarrhea ([5]; VISION): 18.9%
- TEAE dry mouth ([5]; VISION): 38.8%
- TEAE fatigue ([5]; VISION): 43.1%
- TEAE leukopenia ([5]; VISION): 12.5%
- TEAE lymphopenia ([5]; VISION): 14.2%
- TEAE nausea ([5]; VISION): 35.3%
- TEAE thrombocytopenia ([5]; VISION): 17.2%
- TEAE vomiting ([5]; VISION): 18.9%
- patients reporting treatment-emergent adverse events (TEAEs) ([5]; as of 27 Jan 2021, 519 patients): 98.1%
- incidence of adverse events of grade 3 or above ([5]; as of 27 Jan 2021): 52.7%
- participants with PSA decline >50% ([6]; 10 participants, 5.6 GBq/150 mCi): 50%
- participants with PSA decline >50% ([6]; after 2 cycles of 6 GBq/160 mCi): 60%
- rPFS events: Death without radiographic progression [7, 12]: 10 (4.3) n(%)
- rPFS events: Radiographic progression [7, 12]: 105 (44.9) n(%)
- rPFS: Number of events [7, 12]: 115 (49.1%) n(%) and 115 (49.1) n(%)
- risk reduction (rPFS) compared to ARDT arm ([7]; updated exploratory analysis DCO 21 Jun 2023): 57%
- injected dose cleared within 48 hours [8]: approximately 50%
- Best overall response: Complete response (CR) [9, 13]: 15 (21.1) n (%)
- Best overall response: Partial response (PR) [9, 13]: 20 (28.2) n (%)
- Best overall response: Progressive disease (PD) [9, 13]: 14 (19.7) n (%)
- Best overall response: Unknown (UNK) [9, 13]: 2 (2.8) n (%)
- Disease Control Rate (DCR: CR + PR + SD) [9, 13]: 55 (77.5) n (%)
- Overall Response Rate (ORR: CR + PR) [9, 13]: 35 (49.3) n (%)
- rDCR compared to ARDT [9]: a higher rDCR compared to ARDT
- rORR compared to ARDT [9]: at least three times higher rORR compared to ARDT
